According to patent US20080081041A1 (priority 2006, published 2008):
Like-named read-outs stand apart in the source and are kept apart here.

B1: CNTO 328: an anti-IL-6 monoclonal antibody, derived from the CLB-8 anti-IL-6 antibody (antibody, chains of the INN, looked up, V domains shown)
VH: EVQLVESGGKLLKPGGSLKLSCAASGFTFSSFAMSWFRQSPEKRLEWVAEISSGGSYTYYPDTVTGRFTISRDNAKNTLYLEMSSLRSEDTAMYYCARGLWGYYALDYWGQGTSVTVSS
VL: QIVLIQSPAIMSASPGEKVTMTCSASSSVSYMYWYQQKPGSSPRLLIYDTSNLASGVPVRFSGSGSGTSYSLTISRMEAEDAATYYCQQWSGYPYTFGGGTKLEIK

Tests used:
[1] = tested on: metastatic HRPC; settings: docetaxel every 3 weeks; cited from earlier work
[2] = tested on: DU145 cells; assay: DU145 cell killing, ATPlite assay (ATP production); type: cell-based, human; settings: for effect on sensitivity / resistance of the cells to mitoxantrone / timecourse of cell killing / EC50: DU145 cells; for effect on sensitivity / resistance of the cells to mitoxantrone: 48 and 72 hour timepoints; for EC50: Homo sapiens, DU-145, read-out: EC50 values for killing by Mitoxantrone, CNTO 328 at 20 μg/mL where combined
Procedure: DU145 cells were established from a metastatic central nervous system lesion of androgen-independent prostate carcinoma (Stone, K. R. et al. 1978 Int J Cancer 21: 274-81). […] Thus, study of direct interactions of chemotherapy agents and IL6 modulators can be studied on prostate tumor cells in vitro.
DU145 cells were plated at 500 cells/well in a 96 well plate and allowed to adhere for several hours. Treatments were added and plates were incubated at 37° C. for either 24, 48, or 72 hours. […] CNTO 328 was tested at 20 μg/mL and IL-6 was tested at both 10 and 50 ng/mL. Plates were analyzed for ATP production using the ATPlite assay from Perkin Elmer.

[3] = tested on: DU-145 human prostate xenograft; assay: DU-145 human prostate xenograft in nude mice, time to tumor volume of 1000 mm3; type: in vivo; settings: for % TGD (tumor growth delay): [(T-C)/C]×100, versus PBS Group 1; for tumor growth delay vs. control (in words): monotherapy versus Group 1; for T-C (difference between median TTE of treated versus control group): same dosing, versus PBS Group 1; for Median TTE: time to tumor volume 1000 mm3, CNTO328 10 mg/Kg i.p. biweekly, Mitoxantrone 0.75 mg/Kg i.v. once per D for 5 D, n=8
Excerpt: Nude mice were implanted subcutaneously with 1 mm3 fragments of DU-145 human prostate xenograft tissue. […] Dosing was initiated on Day 1 as follows: […] The study endpoint was the time taken for tumors to reach a volume of 1000 mm3 at which time each animal was euthanized. Days in Progress=56. Calculation using the TTE=time to endpoint are: T−C=difference between median TTE (days) of treated versus control group, TGD=tumor growth delay. % TGD=[(T-C)/C]×100. The Logrank test was used to analyze the significance of the differences between the TTE values of treated and control groups. Two-tailed statistical analyses were conducted at significance level P-0.05. Statistical Significance: ns=not significant, **=P<0.01 compared to group indicated.

[4] = tested on: human prostate tumor; settings: human prostate tumor-bearing mice; cited from earlier work

Molecule	effect on sensitivity / resistance of the cells to mitoxantrone [2]	% TGD (tumor growth delay) [3] [%]	tumor growth delay vs. control (in words) [3]	T-C (difference between median TTE of treated versus control group) [3] [days]	Median TTE [3] [days]	other results
CC(=O)O[C@@]12CO[C@@H]1C[C@H](O)[C@@]1(C)C(=O)[C@H](O)C3=C(C)[C@@H](OC(=O)[C@H](O)[C@@H](NC(=O)OC(C)(C)C)c4ccccc4)C[C@@](O)([C@@H](OC(=O)c4ccccc4)[C@H]21)C3(C)C [docetaxel]						improvement of survival over the reference M/P regimen [1]: 2-2.5 months
IL-6: 22-27 kDa secreted glycoprotein cytokine, added exogenously	did not increase resistance to the effect of mitoxantrone					
O=C1c2c(O)ccc(O)c2C(=O)c2c(NCCNCCO)ccc(NCCNCCO)c21 [Mitoxantrone, 1,4-Dihydroxy-5,8-bis[[2-[(2-hydroxyethyl)amino]ethyl]amino]-9,10-anthracenedione]		29	no significant tumor growth delay	6.2	27.7	timecourse of cell killing ([2]; 48 and 72 hours (FIG. 1)): greatest reduction in cell survival; timecourse of cell killing ([2]; 24 hours (FIG. 1)): minimal cell death; EC50 ([2]; 48 Hours): 23 nM; EC50 ([2]; 72 Hours): 10.8 nM; mean body weight nadir ([3]; day 10): −5%
B1	does not significantly alter the sensitivity of the cells to mitoxantrone	−21	no significant tumor growth delay	-4.6	16.9	proliferation of the DU145 cells ([2]; agent alone (not shown)): ineffective at reducing proliferation; effect of monotherapy on tumor and survival [4]: block conversion to androgen independent growth, induce tumor apoptosis, and prolong survival
